Legend:
serum cholesterol = assay: Serum total, HDL and non-HDL cholesterol, hamsters dosed 28 days; assay type: in vivo, golden Syrian hamster; conditions: hamster
Text: (§1) Male golden Syrian hamsters (126-147 gm) were obtained from Charles Rivers Laboratories and were single housed in a constant temperature environment with alternating 12-hour light and dark cycles. Hamsters were fed Teklad 7001 rodent meal chow at libitum for two weeks before the experimental studies began and switched to Teklad 7001 rodent meal chow supplemented with 0.24% cholesterol on day one of the 28-day experiment. Water was continuously available to the animals. Hamsters were assigned to groups in a manner that normalized each group by pretreatment body weights. SD-5613 was dissolved in an aqueous solution of 0.2% (w/v) Tween 80 and administered Q.D. by intragastric gavage between 9 a.m. and 10 a.m. each morning using a syringe fitted with a flexible feeding tube. Blood samples were collected after 14- and 28-day treatment periods by orbital sinus and cardiac puncture, respectively. Hamsters were anesthetized but not fasted prior to blood collections. Fecal samples were collected during a 48-hour period at the end of days 14 and 28 (i.e. days 13-14 and 27-28). Hamsters were sacrificed using carbon dioxide asphyxiation to obtain the following tissue samples: liver, kidneys, colon and cecum.
Blood was collected at 14 and 28 days from non-fasted hamsters and put into serum separator tubes. The blood cells were separated from the serum by centrifugation at 2000×g for 20 minutes and the serum decanted. Total cholesterol was measured using a Cobas Mira Classic clinical chemistry analyzer (Roche Diagnostic Systems, Indianapolis, Ind.). This analyzer used the cholesterol oxidase reaction to produce hydrogen peroxide which was measured colorimetrically. The cholesterol reagent (Roche Diagnostic Systems) was reconstituted according to package insert. The reagent was calibrated using Roche Calibrator Serum. Commercial bi-level quality control material was analyzed to verify calibration and reagent performance (QC1, QC2-Bio-Rad Laboratories, Irvine, Calif.). The cholesterol content of each sample was measured at 500 nm and 37° C. in a calibrated analyzer by mixing 3 μl of sample with 150 μl cholesterol reagent and 40 μl water.
The Unimate HDL Direct Cholesterol assay (DHDL, Roche Diagnostics) was based on the […] of synthetic polymers and polyanions to the surface of lipoproteins. The combined action of polymers, polyanions and detergent solubilizes cholesterol from HDL, but transforms LDL, VLDL, and chylomicrons into detergent-resistant forms. Solubilized cholesterol was oxidized by the sequential enzymatic action of cholesterol esterase and cholesterol oxidase. The H2O2 produced in this reaction was reacted with chromogens to form a colored dye. The increase in absorbance at 550 nm was directly proportional to the HDL cholesterol concentration of the sample. The test was performed using a Cobas Mira Classic clinical chemistry analyzer (Roche Diagnostic Systems). The DHDL reagent (Roche Diagnostic Systems) was reconstituted according to the package insert. The reagent was calibrated using Roche HDL Direct Calibrator. Commercial bi-level quality control material was analyzed to verify calibration and reagent performance (Liquichek Lipids Control, Level 1 & 2, Bio-Rad Laboratories, Irvine, Calif.). A 2.4 μl aliquot of serum was analyzed in the presence of 240 μl of Reagent 1, 80 μl of Reagent 2 and 5 μl of water at 37° C. and 550 nm wavelength. Triglycerides were hydrolyzed by lipoprotein lipase to glycerol and fatty acids. Glycerol was then phosphorylated to glycerol-3-phosphate by adenosine 5-triphosphate (ATP) in a reaction catalyzed by glycerol kinase (GK). The oxidation of glycerol-3-phosphate was catalyzed by glycerolphosphate oxidase (GPO) to form dihydroxyacetone phosphate and hydrogen peroxide. The hydrogen peroxide reacted with 4-cholorophenol and 4-aminophenazone in the presence of peroxidase to form a quinoneimine complex, which was read at 490-550 nm. […]

[1] = test system: Hepatic Cholesterol 7α-hydroxylase; assay: Cholesterol 7-α hydroxylase activity assay, hamster liver microsomes; assay type: in vivo, golden Syrian hamster; conditions: 28 days
Text: as §1
Homogenates of three gram liver tissue samples were prepared in 25 ml homogenization buffer [0.1 M potassium phosphate buffer, pH 7.2, containing 0.1 M sucrose, 50 mM KCl, 50 mM NaF, 5 mM ethylene glycol-bis(β-aminoethyl ether)-N,N,N′,N′-tetraacetic acid (EGTA), 1 mM EDTA, 3 mM dithiothreitol (DTIT), and 1 mM phenylmethylsulfonyl fluoride (PMSF)]. A microsomal fraction was prepared by centrifugation at 10,000×g for ten minutes. The supernatant was subjected to centrifugation at 105,000×g for two hours. The microsomal fraction was resuspended in a 0.1 M Na tetrapyrophosphate buffer (pH 10), with 50 mM NaF, and 1 mM EDTA, and subjected to centrifugation for one hour at 105,000×g. The microsomal fraction was resuspended in the homogenization buffer, and assayed for protein content by Coomassie Protein Plus Assay reagent.
Liver microsomes (1 mg) or 7-α-hydroxycholesterol standard solutions were preincubated for five minutes at 37° C. in a rocking water bath with 500 μl 5× buffer, 1.7 ml water, and 50 μl 0.1% (w/v) cholesterol as substrate in excess. The 5× buffer consists of 0.42 M Na2HPO4, 0.25 mM NaF, 0.08 M KH2PO4, 5 mM EDTA and 10 mM DTT. The reaction tubes were incubated at 37° C. in a rocking water bath throughout the remainder of the assay protocol, with cessation of rocking only for the period of time needed to add solutions. After the preincubation period, 250 μl of 10 mM NADPH was added and incubated for 5 minutes to allow enzymatic conversion of the cholesterol substrate to 7-α-hydroxycholesterol by endogenous 7-α-hydroxylase. The reaction was stopped by addition of 75 μl of 20% sodium cholate. After four minutes, 25 μl of 100 μM 20-α-hydroxycholesterol was added to each tube as an internal recovery standard. The tubes were allowed to rock briefly in the water bath to mix, then 40 μl of 25 U/ml cholesterol oxidase was added and the tubes were incubated for ten minutes to convert 7-α-hydroxycholesterol and 20-α-hydroxycholesterol to their ketone forms, 7-α-hydroxycholesten-3-one and 20-α-hydroxycholesten-3-one. After the enzymatic reactions were completed, the ketone products were isolated by four sequential extractions in 20, 10, 10 and 10 ml petroleum ether, respectively. The collected volumes were evaporated to dryness under a flow of nitrogen gas between each extraction step using a heat block set at 50° C. The final dried samples were resuspended in 125 μl mobile phase solution consisting of 70:30 acetonitrile/methanol for analysis by reversed phase HPLC. Chromatography was performed on a 4.6×250 mm Beckman Ultrosphere ODS reverse phase column in mobile phase solution. […]

CCCCC1(CCCC)CS(=O)(=O)c2ccc(N(C)C)cc2[C@@H](c2ccc(OCc3ccc(C[N+]45CCN(CC4)CC5)cc3)cc2)[C@H]1O [LUM001]
HDL-cholesterol (serum cholesterol; 5 mg/kg/day): 127 ± 10 mg/dL | HDL-cholesterol, % change from vehicle group (serum cholesterol; 5 mg/kg/day): (−22) % | Non-HDL-cholesterol (serum cholesterol; 5 mg/kg/day): 99 ± 9 mg/dL | Non-HDL-cholesterol, % change from vehicle group (serum cholesterol; 5 mg/kg/day): (−37) % | Serum Total Cholesterol (serum cholesterol; 5 mg/kg/day): 225 ± 16 mg/dL | Serum Total Cholesterol, % change from vehicle group (serum cholesterol; 5 mg/kg/day): (−29) % | HDL-cholesterol (serum cholesterol; 15 mg/kg/day): 115 ± 7 mg/dL | HDL-cholesterol, % change from vehicle group (serum cholesterol; 15 mg/kg/day): (−29) % | Non-HDL-cholesterol (serum cholesterol; 15 mg/kg/day): 86 ± 8 mg/dL | Non-HDL-cholesterol, % change from vehicle group (serum cholesterol; 15 mg/kg/day): (−45) % | Serum Total Cholesterol (serum cholesterol; 15 mg/kg/day): 201 ± 14 mg/dL | Serum Total Cholesterol, % change from vehicle group (serum cholesterol; 15 mg/kg/day): (−37) % | HDL-cholesterol (serum cholesterol; 50 mg/kg/day): 102 ± 4 mg/dL | HDL-cholesterol, % change from vehicle group (serum cholesterol; 50 mg/kg/day): (−37) % | Non-HDL-cholesterol (serum cholesterol; 50 mg/kg/day): 76 ± 4 mg/dL | Non-HDL-cholesterol, % change from vehicle group (serum cholesterol; 50 mg/kg/day): (−52) % | Serum Total Cholesterol (serum cholesterol; 50 mg/kg/day): 178 ± 6 mg/dL | Serum Total Cholesterol, % change from vehicle group (serum cholesterol; 50 mg/kg/day): (−44) % | Hepatic Cholesterol 7α-hydroxylase ([1]; 5 mg/kg/day): 50.9 ± 4.8 pmol/mg-port/min | Hepatic Cholesterol 7α-hydroxylase, % change from vehicle group ([1]; 5 mg/kg/day): (+52) % | Hepatic Cholesterol 7α-hydroxylase ([1]; 15 mg/kg/day): 56.5 ± 4.5 pmol/mg-port/min | Hepatic Cholesterol 7α-hydroxylase, % change from vehicle group ([1]; 15 mg/kg/day): (+69) % | Hepatic Cholesterol 7α-hydroxylase ([1]; 50 mg/kg/day): 63.8 ± 5.6 pmol/mg-port/min | Hepatic Cholesterol 7α-hydroxylase, % change from vehicle group ([1]; 50 mg/kg/day): (+90) %

From patent publication US20140275090A1, “BILE ACID RECYCLING INHIBITORS FOR TREATMENT OF PRIMARY SCLEROSING CHOLANGITIS AND INFLAMMATORY BOWEL DISEASE” (Lumena Pharmaceuticals, Inc., priority 2013, published 2014)
